Conditions: 300 mg QD (n=12)
Description: Dose adjustment was allowed according to the severity of toxicity [Supplementary Table 1].
The primary endpoints were safety, ORR and DCR assessed by investigators. […] AEs referred to treatment-emergent adverse events (TEAEs) and TRAEs were assessed by investigators. Serious adverse events (SAEs) referred to AEs meeting at least one of the following criteria: event leading to death; life-threatening event; event requiring hospitalization or extension of hospital stay; event leading to persistent or evident disability or dysfunction; event leading to congenital malformation or birth defect or event which might lead to injury or that need medical treatment to avoid the above mentioned important medical events.

Q: What does the source list for `O=C(Nc1ccc(Oc2ccnc3c2CCN3)c(F)c1)c1c[nH]cc(-c2ccc(F)cc2)c1=O`?
A: TRAE Accessory nerve disorder, any grade: 1 (8.3) n (%); TRAE Accessory nerve disorder, grade 3-4: 0 n (%); TRAE Activated partial thromboplastin time prolonged, any grade: 1 (8.3) n (%); TRAE Activated partial thromboplastin time prolonged, grade 3-4: 0 n (%); TRAE Anaemia, any grade: 0 n (%); TRAE Anaemia, grade 3-4: 0 n (%); TRAE Anaesthesia oral, any grade: 0 n (%); TRAE Anaesthesia oral, grade 3-4: 0 n (%); TRAE Arrhythmia, any grade: 0 n (%); TRAE Arrhythmia, grade 3-4: 0 n (%); TRAE Arthralgia, any grade: 0 n (%); TRAE Arthralgia, grade 3-4: 0 n (%); TRAE Asthenia, any grade: 0 n (%); TRAE Asthenia, grade 3-4: 0 n (%); TRAE Blister, any grade: 0 n (%); TRAE Blister, grade 3-4: 0 n (%); TRAE Chest discomfort, any grade: 1 (8.3) n (%); TRAE Chest discomfort, grade 3-4: 0 n (%); TRAE Chronic kidney disease, any grade: 0 n (%); TRAE Chronic kidney disease, grade 3-4: 0 n (%); TRAE Constipation, any grade: 2 (16.7) n (%); TRAE Constipation, grade 3-4: 0 n (%); TRAE Cough, any grade: 0 n (%); TRAE Cough, grade 3-4: 0 n (%); TRAE Decreased Ccr, any grade: 2 (16.7) n (%); TRAE Decreased Ccr, grade 3-4: 0 n (%); TRAE Decreased appetite, any grade: 2 (16.7) n (%); TRAE Decreased appetite, grade 3-4: 0 n (%); TRAE Diarrhoea, any grade: 1 (8.3) n (%); TRAE Diarrhoea, grade 3-4: 0 n (%); TRAE Dizziness, any grade: 1 (8.3) n (%); TRAE Dizziness, grade 3-4: 0 n (%); TRAE Dry mouth, any grade: 1 (8.3) n (%); TRAE Dry mouth, grade 3-4: 0 n (%); TRAE Dysgeusia, any grade: 1 (8.3) n (%); TRAE Dysgeusia, grade 3-4: 0 n (%); TRAE Dyskinesia, any grade: 0 n (%); TRAE Dyskinesia, grade 3-4: 0 n (%); TRAE Dysphonia, any grade: 0 n (%); TRAE Dysphonia, grade 3-4: 0 n (%); TRAE Dyspnoea, any grade: 0 n (%); TRAE Dyspnoea, grade 3-4: 0 n (%); TRAE Electrocardiogram QT prolonged, any grade: 1 (8.3) n (%); TRAE Electrocardiogram QT prolonged, grade 3-4: 0 n (%); TRAE Elevated ALT, any grade: 3 (25.0) n (%); TRAE Elevated ALT, grade 3-4: 0 n (%); TRAE Elevated AST, any grade: 2 (16.7) n (%); TRAE Elevated AST, grade 3-4: 0 n (%); TRAE Elevated D dimer, any grade: 0 n (%); TRAE Elevated D dimer, grade 3-4: 0 n (%); TRAE Elevated GGT, any grade: 0 n (%); TRAE Elevated GGT, grade 3-4: 0 n (%); TRAE Elevated LDH, any grade: 0 n (%); TRAE Elevated LDH, grade 3-4: 0 n (%); TRAE Elevated alpha-HBDH, any grade: 0 n (%); TRAE Elevated alpha-HBDH, grade 3-4: 0 n (%); TRAE Elevated bilirubin, any grade: 0 n (%); TRAE Elevated bilirubin, grade 3-4: 0 n (%); TRAE Elevated blood creatinine, any grade: 3 (25.0) n (%); TRAE Elevated blood creatinine, grade 3-4: 0 n (%); TRAE Elevated creatine phosphokinase, any grade: 0 n (%); TRAE Elevated creatine phosphokinase, grade 3-4: 0 n (%); TRAE Elevated serum urea, any grade: 1 (8.3) n (%); TRAE Elevated serum urea, grade 3-4: 0 n (%); TRAE Elevated troponin, any grade: 0 n (%); TRAE Elevated troponin, grade 3-4: 0 n (%); TRAE Genital rash, any grade: 0 n (%); TRAE Genital rash, grade 3-4: 0 n (%); TRAE Haematuria, any grade: 0 n (%); TRAE Haematuria, grade 3-4: 0 n (%); TRAE Headache, any grade: 1 (8.3) n (%); TRAE Headache, grade 3-4: 0 n (%); TRAE Hyperhidrosis, any grade: 0 n (%); TRAE Hyperhidrosis, grade 3-4: 0 n (%); TRAE Hyperlipidaemia, any grade: 0 n (%); TRAE Hyperlipidaemia, grade 3-4: 0 n (%); TRAE Hypertension, any grade: 1 (8.3) n (%); TRAE Hypertension, grade 3-4: 0 n (%); TRAE Hypoaesthesia oral, any grade: 0 n (%); TRAE Hypoaesthesia oral, grade 3-4: 0 n (%); TRAE Hypocalcaemia, any grade: 0 n (%); TRAE Hypocalcaemia, grade 3-4: 0 n (%); TRAE Hypotension, any grade: 1 (8.3) n (%); TRAE Hypotension, grade 3-4: 0 n (%)

Reference: paper PMC10088252
